According to the supplement of paper PMC11061612:

How the values were obtained:
[1] = tested on: SCC-3 (B-Cell Non-Hodgkin's Lymphoma); test: Bliss excess, mean over the matrix (fraction); higher = more synergy
In short: (§1)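 Bliss excess equals the observed combination effect minus the expected value EA + EB − EA·EB, where EA and EB are the effects of each agent alone. Combination Emax is the second-highest inhibition within the matrix. Inhibition was scaled from CellTiter-Glo 2.0 luminescence, with 0 set by vehicle wells and 1 by blank wells, after 72 hours of two-drug dosing of cells plated in 1536-well plates.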

[2] = tested on: NCI-H322M (Lung Adenocarcinoma); test: as above
In short: as §1

[3] = tested on: MFE-319 (Endometrial Carcinoma); test: as above
In short: as §1

[4] = tested on: KYSE-50 (Esophageal Squamous Cell Carcinoma); test: as above
In short: as §1

[5] = tested on: EW-3 (Ewing's Sarcoma); test: as above
In short: as §1

[6] = tested on: GOTO (Neuroblastoma); test: as above
In short: as §1

[7] = tested on: EW-18 (Ewing's Sarcoma); test: as above
In short: as §1

[8] = tested on: KP-2 (Pancreatic Carcinoma); test: as above
In short: as §1

[9] = tested on: U-87-MG (Glioblastoma); test: as above
In short: as §1

[10] = tested on: H-EMC-SS (Chondrosarcoma); test: as above
In short: as §1

[11] = tested on: SNU-C1 (Colorectal Carcinoma); test: as above
In short: as §1

[12] = tested on: NCI-N87 (Gastric Carcinoma); test: as above
In short: as §1

[13] = tested on: OCUM-1 (Gastric Carcinoma); test: combination Emax (second highest fraction inhibited in the dose matrix, 72 h); higher = more inhibition; extreme values may be limits of the assay
In short: as §1

[14] = tested on: HSC-2 (Oral Cavity Carcinoma); test: as above
In short: as §1

[15] = tested on: DG-75 (Burkitt's Lymphoma); test: as above
In short: as §1

[16] = tested on: BV-173 (Chronic Myelogenous Leukemia); test: as above
In short: as §1

[17] = tested on: EW-13 (Ewing's Sarcoma); test: as above
In short: as §1

[18] = tested on: IMR-5 (Neuroblastoma); test: as above
In short: as §1

[19] = tested on: LC4-1 (B-Lymphoblastic Leukemia); test: as above
In short: as §1

[20] = tested on: HC-1 (Other Blood Carcinomas); test: Bliss excess, mean over the matrix (fraction); higher = more synergy
In short: as §1

SMILES	Bliss excess [1]	Bliss excess [2]	Bliss excess [3]	Bliss excess [4]	Bliss excess [5]	Bliss excess [6]	Bliss excess [7]	Bliss excess [8]	Bliss excess [9]	Bliss excess [10]	Bliss excess [11]	Bliss excess [12]	combination Emax [13]	combination Emax [14]	combination Emax [15]	combination Emax [16]	combination Emax [17]	combination Emax [18]	combination Emax [19]	Bliss excess [20]
Cc1c2c(nn1C)CSCc1cc(n(C)n1)CSc1cc(c3ccccc3c1)OCCCc1c(C(=O)O)n(C)c3c-2c(Cl)ccc13 [AZD5991] + CC1(C)CCC(CN2CCN(c3ccc(C(=O)NS(=O)(=O)c4ccc(NCC5CCOCC5)c([N+](=O)[O-])c4)c(Oc4cnc5[nH]ccc5c4)c3)CC2)=C(c2ccc(Cl)cc2)C1 [Venetoclax] (first compound max 1 µM, 7x7, partner max 1 µM)	0.017	-0.0378	0.0377	-0.0575	0.125	0.0588	0.046	0.0157	-0.0877	0.0646	-0.0458	-0.0041	0.0835	0.965	0.144	0.95	0.675	0.995	1	
CN(C)CCCOc1ccc(-c2ccc3ncc4c(c3c2)n(C2CCOCC2)c(=O)n4C)cn1 [AZD0156] + O=C(c1cc(Cc2n[nH]c(=O)c3ccccc23)ccc1F)N1CCN(C(=O)C2CC2)CC1 [Olaparib] (first compound max 3 µM, partner max 3 µM)	0.28	0.0142	0.0188	0.0152	0.13	0.0036	0.172	-0.0072	0.0207	0.029	-0.0049	-0.0568	0.319	0.386	0.481	0.764		0.544	0.673	0.134
CCc1c2c(nc3ccc(O)cc13)-c1cc3c(c(=O)n1C2)COC(=O)[C@]3(O)CC [SN-38] + CN(C)CCCOc1ccc(-c2ccc3ncc4c(c3c2)n(C2CCOCC2)c(=O)n4C)cn1 [AZD0156] (first compound max 0.3 µM, 7x7, partner max 1 µM)	0.0372	0.15	-0.0108	-0.0053	-0.0679	-0.0221	-0.0607	0.0154		-0.0092	-0.0125	-0.0447	0.635	0.965	0.856	0.981	0.734	0.993	0.932	-0.0261
COc1cccc2c1C(=O)c1c(O)c3c(c(O)c1C2=O)C[C@@](O)(C(=O)CO)C[C@@H]3O[C@H]1C[C@H](N)[C@H](O)[C@H](C)O1 [Doxorubicin] + Cc1cc2ncnn2cc1Nc1ncc2c(n1)n(C1CCOCC1)c(=O)n2C [AZD7648] (first compound max 1 µM, 7x7, partner max 10 µM)	0.158	0.0751	0.0152	0.0331	0.005	0.0644	0.0402	0.0223		-0.0179	-0.0037	-0.0298	0.596	0.89	0.882	0.994	0.745	1	1	0.0693
C=CCn1c(=O)c2cnc(Nc3ccc(N4CCN(C)CC4)cc3)nc2n1-c1cccc(C(C)(C)O)n1 [AZD1775] + C[C@@H]1COCCN1C2=NC(=NC(=C2)C3(CC3)[S@](=N)(=O)C)C4=C5C=CNC5=NC=C4 [AZD6738] (first compound max 1 µM, partner max 10 µM)	0.0428	-0.0234	0.0583	0.0328	-0.131	-0.0186	-0.0198	0.0329		-0.0843	0.0303	-0.0824	0.816	0.832	0.978	0.988	0.653	0.986	0.952	-0.017
C=CCn1c(=O)c2cnc(Nc3ccc(N4CCN(C)CC4)cc3)nc2n1-c1cccc(C(C)(C)O)n1 [AZD1775] + C1CN(CCC1(C(=O)N[C@@H](CCO)C2=CC=C(C=C2)Cl)N)C3=NC=NC4=C3C=CN4 [Capivasertib] (first compound max 3 µM, partner max 3 µM)	0.0613	0.0152	-0.0524	-0.0306	-0.0571	-0.0109	0.0244	-0.0475	0.0503	-0.0422	-0.0869	-0.0067	0.707	0.757	0.922			1	0.884	0.0514
Cc1cc2ncnn2cc1Nc1ncc2c(n1)n(C1CCOCC1)c(=O)n2C [AZD7648] + CCN(CCO)CCCOc1ccc2c(Nc3cc(CC(=O)Nc4cccc(F)c4)[nH]n3)ncnc2c1 [AZD2811] (first compound max 10 µM, 7x7, partner max 1 µM)	0.0548	-0.0182	0.0419	0.0784	-0.0156	0.0582	-0.0154	-0.0206		-0.0452	-0.0184	0.0081	0.369	0.547	0.475	0.964	0.291	0.98	0.839	0.0045
CN(C)CCCOc1ccc(-c2ccc3ncc4c(c3c2)n(C2CCOCC2)c(=O)n4C)cn1 [AZD0156] + CCN(CCO)CCCOc1ccc2c(Nc3cc(CC(=O)Nc4cccc(F)c4)[nH]n3)ncnc2c1 [AZD2811] (first compound max 1 µM, 7x7, partner max 1 µM)	0.112	-0.0448	-0.0431	-0.0128	-0.0458	0.129	-0.0219	-0.0086		-0.0504	-0.0245	0.0046	0.332	0.289	0.365	0.975	0.332	0.967	0.808	-0.008
Cc1cc2ncnn2cc1Nc1ncc2c(n1)n(C1CCOCC1)c(=O)n2C [AZD7648] + CN(C)CCCOc1ccc(-c2ccc3ncc4c(c3c2)n(C2CCOCC2)c(=O)n4C)cn1 [AZD0156] (first compound max 10 µM, 7x7, partner max 1 µM)	0.0458	0.0083	0.0572	0.0078	-0.0281	-0.0264	-0.0268	-0.0182		-0.0396	-0.0423	0.0452	0.211	0.398	0.409	0.386	0.325	0.239	0.42	-0.0398
Cc1c2c(nn1C)CSCc1cc(n(C)n1)CSc1cc(c3ccccc3c1)OCCCc1c(C(=O)O)n(C)c3c-2c(Cl)ccc13 [AZD5991] + C1CN(CCC1(C(=O)N[C@@H](CCO)C2=CC=C(C=C2)Cl)N)C3=NC=NC4=C3C=CN4 [Capivasertib] (first compound max 1 µM, 7x7, partner max 3 µM)	0.102	0.0198	0.111	-0.0036	0.0032	0.0118		-0.01	0.0264	-0.0227	-0.0004	-0.0516	0.219	0.976	0.257	0.927	0.432	1	0.989	-0.0475
Cc1cc2ncnn2cc1Nc1ncc2c(n1)n(C1CCOCC1)c(=O)n2C [AZD7648] + C[C@@H]1COCCN1C2=NC(=NC(=C2)C3(CC3)[S@](=N)(=O)C)C4=C5C=CNC5=NC=C4 [AZD6738] (first compound max 10 µM, 7x7, partner max 10 µM)	-0.0083	-0.0048	0.0546	-0.0089	-0.0607	-0.0205	-0.0133	0.0004		0.0095	-0.0708	0.024	0.719	0.596	0.885	0.97	0.564	0.951	0.937	-0.131
Cc1c2c(nn1C)CSCc1cc(n(C)n1)CSc1cc(c3ccccc3c1)OCCCc1c(C(=O)O)n(C)c3c-2c(Cl)ccc13 [AZD5991] + CCN(CCO)CCCOc1ccc2c(Nc3cc(CC(=O)Nc4cccc(F)c4)[nH]n3)ncnc2c1 [AZD2811] (first compound max 1 µM, 7x7, partner max 1 µM)	0.0604	-0.0057	0.0215		0.05	-0.0245	-0.0209	0.0395	0.0065	0.027	-0.0256	-0.0104	0.394	0.968	0.229	0.95	0.454	1	0.993	0.13
COc1cccc(OCCCN)c1-c1cc(Nc2cnc(C#N)cn2)n[nH]1 [Prexasertib] + O=C(c1cc(Cc2n[nH]c(=O)c3ccccc23)ccc1F)N1CCN(C(=O)C2CC2)CC1 [Olaparib] (first compound max 1 µM, 7x7, partner max 10 µM)	-0.0133	-0.126	-0.0891	-0.117	-0.0378	-0.101	-0.0677	-0.0682		-0.0445	-0.153	-0.127	0.7	0.782	0.827	0.994	0.698	0.976	0.982	0.0035
COc1cccc(OCCCN)c1-c1cc(Nc2cnc(C#N)cn2)n[nH]1 [Prexasertib] + CN(C)CCCOc1ccc(-c2ccc3ncc4c(c3c2)n(C2CCOCC2)c(=O)n4C)cn1 [AZD0156] (first compound max 1 µM, 7x7, partner max 1 µM)	0.0103	0.011	-0.0129	0.0138	-0.0437	-0.0098	0.021	-0.0286		-0.0264	-0.0336	-0.0381	0.818	0.776	0.964	0.97	0.452	0.963	0.978	-0.0134
